Source: US8324264B1, “Inhibitors of bacterial biofilms and related methods” (Sequoia Sciences, Inc., priority 2011, dated 2012)
In brackets after ≈: the same amount, converted by molar mass.

Key:
[1] = tested on: Xanthomonas campestris; experiment: Biofilm growth assay, plant pathogen Xanthomonas campestris; format: cell-based; conditions: M8 salts, 0.7% glucose, 0.5% Noble agar, 30° C., 24 to 48 hours
[2] = tested on: B. cepacia; experiment: Biofilm growth assay, Burkholderia cepacia; format: cell-based; conditions: Table 6, n = 10 isolates; M9 salts, 0.7% citrate, 0.4% Noble agar
Protocol: The biofilm growth assay was carried out to measure swarming or biofilm spreading on semi-solid agar media in round plates (for example, 100×15 mm), also referred to as Petri dishes. For E. coli, the plates contained LB medium with 0.6% agar and 0.5% glucose. P. aeruginosa plates were made with M8 agar supplemented with 0.2% glucose, 100 μM CaCl2, 1 mM MgSO4, and 0.5% Casamino acids. The agar plates of this assay consisted of 0.4% to 0.7% agar (Bacto or Noble agar), although other media may also be used as described in the literature and known to those skilled in the art. Test compounds at the desired concentration were added to the cooled, autoclaved media. Portions of the media were then poured into the plates (20 mL/plate), and the plates allowed to dry at room temperature for approximately 3 to 4 hours. Alternatively, however, plates may be dried in a laminar flow hood for approximately fifteen to twenty minutes. Overnight cultures were grown in a 37° C. shaker in LB (E. coli) or TSB (P. aeruginosa). Plates were inoculated by placing 5 μL of the appropriate overnight culture in the centers of the plates. The plates then were incubated overnight at 37° C. The area of the zone of spreading bacteria was then measured and replicates are averaged. Percent inhibition was calculated as 100×(area without compound−area with compound)/(area without compound). […] A > (“greater than” symbol) as used in Table 1 is well understood to those skilled in the art as an indication that the listed concentration was not effective at this concentration.
(§1) Table 6, below, lists the inhibitory concentrations of select compounds and antibiotics in the biofilm growth assay against various gram-negative bacterial biofilms. “N” means the number of isolates of bacteria tested. The biofilm growth assay procedure detailed in Example I, above, was followed. Burkholderia cepacia used media consisting of M9 salts, 100 μM CaCl2, 1 mM MgSO4, and 0.7% citrate in 0.4% Noble agar. Salmonella spp. used media consisting of Nutrient Broth with 0.5% glucose in 0.5% Noble agar.

[3] = tested on: Salmonella spp.; experiment: Biofilm growth assay, Salmonella spp.; format: cell-based; conditions: Table 6, n = 6 isolates; Nutrient Broth, 0.5% glucose, 0.5% Noble agar
Protocol: The biofilm growth assay was carried out to measure swarming or biofilm spreading on semi-solid agar media in round plates (for example, 100×15 mm), also referred to as Petri dishes. For E. coli, the plates contained LB medium with 0.6% agar and 0.5% glucose. P. aeruginosa plates were made with M8 agar supplemented with 0.2% glucose, 100 μM CaCl2, 1 mM MgSO4, and 0.5% Casamino acids. The agar plates of this assay consisted of 0.4% to 0.7% agar (Bacto or Noble agar), although other media may also be used as described in the literature and known to those skilled in the art. Test compounds at the desired concentration were added to the cooled, autoclaved media. Portions of the media were then poured into the plates (20 mL/plate), and the plates allowed to dry at room temperature for approximately 3 to 4 hours. Alternatively, however, plates may be dried in a laminar flow hood for approximately fifteen to twenty minutes. Overnight cultures were grown in a 37° C. shaker in LB (E. coli) or TSB (P. aeruginosa). Plates were inoculated by placing 5 μL of the appropriate overnight culture in the centers of the plates. The plates then were incubated overnight at 37° C. The area of the zone of spreading bacteria was then measured and replicates are averaged. Percent inhibition was calculated as 100×(area without compound−area with compound)/(area without compound). An active compound was considered that which reduces the area of the spreading biofilm compared to negative controls by greater than or equal to 85%. The values shown in Table 1 are the concentrations of compounds (μg/ml) tested in the biofilm growth assay that reduce the area of the spreading biofilm compared to negative controls by greater than or equal to 85% unless noted differently in Table 1. A > (“greater than” symbol) as used in Table 1 is well understood to those skilled in the art as an indication that the listed concentration was not effective at this concentration.
as §1

[4] = tested on: P. aeruginosa biofilms; experiment: Biofilm growth assay (spreading biofilm on semi-solid agar), P. aeruginosa; format: cell-based; parameters: P. aeruginosa (n = 10) inhibitory concentration in the biofilm growth assay: unit: ug/mL; conditions: for IC85: Pseudomonas aeruginosa, biofilm growth assay, vs negative controls, Tables 1-5, read-out: P. aeruginosa: concentration that reduces the area of the spreading biofilm by greater than or equal to 85%; for P. aeruginosa (n = 10) inhibitory concentration in the biofilm growth assay: Table 6, n = 10 isolates
In short: (§2)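 Compound added to semi-solid agar: M8 with 0.2% glucose, 100 μM CaCl2, 1 mM MgSO4, 0.5% Casamino acids (P. aeruginosa) or LB with 0.6% agar, 0.5% glucose (E. coli). Center-inoculated with 5 μL overnight culture, incubated overnight at 37 °C; value is concentration (μg/ml) reducing spreading area ≥85% versus negative controls.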

[5] = tested on: cysB; conditions: as described in U.S. Pat. No. 7,604,978; cited from earlier work
[6] = tested on: P. aeruginosa biofilms; experiment: Biofilm Growth Assay with compound in half of the agar and antibiotic disks; format: cell-based; conditions: 0.125 μg/ml in agar with colistin 10 μg disks
Protocol: The Biofilm Growth Assay as described in Example VII was performed in round plates with the compounds of the invention in agar on half of the plate and antibiotic disks placed onto the agar containing the compounds of the invention.
The Biofilm Growth Assay was performed as described in Example VIII. 2 to 4 antibiotic disks were placed onto the agar containing a compound of the invention in a line parallel to the line that separates the two agars in one round plate. Appropriate negative and positive control plates were performed as known to those skilled in the art.

[7] = tested on: Pectobacterium atrosepticum; experiment: Biofilm growth assay, plant pathogen Pectobacterium atrosepticum; format: cell-based; conditions: M8 salts, 0.7% glucose, 0.5% Noble agar, 30° C., 24 to 48 hours
[8] = tested on: E. coli biofilms; experiment: Biofilm growth assay (spreading biofilm on semi-solid agar), E. coli; format: cell-based; parameters: E. coli (n = 10) inhibitory concentration in the biofilm growth assay: unit: ug/mL; conditions: for IC85: Escherichia coli, biofilm growth assay, overnight 37° C., vs negative controls, Tables 1-5, read-out: E. coli: concentration that reduces the area of the spreading biofilm by greater than or equal to 85%; for E. coli (n = 10) inhibitory concentration in the biofilm growth assay: Table 6, n = 10 isolates
In short: as §2

[9] = tested on: Pseudomonas syringae; experiment: Biofilm growth assay, plant pathogen Pseudomonas syringae; format: cell-based; conditions: M8 salts, 0.7% glucose, 0.5% Noble agar, 30° C., 24 to 48 hours
[10] = Evaluation of salts; format: physicochemical
Protocol: Evaluation of Compound 62 (Table 4) salt formation was performed. […] As stated herein, the invention also includes compounds and their salts. Evaluation of Compound 64 (Table 4) salt formation was performed. HCl (mono and bis), p-TSA (bis), BSA (bis), MSA (bis), H2SO4 (mono), and H3PO4 (mono) provided salts with crystallinity. […] As stated herein, the invention also includes compounds and their salts.

**Q.** Which results are given for `CC1(C)CC[C@]2(C(=O)O)CC[C@]3(C)C(=CCC4[C@@]5(C)Cc6c(n[nH]c6N)C(C)(C)[C@@H]5CC[C@]43C)[C@@H]2C1` (stereo partly drawn) [Compound 1, (4aS,6aS,6bR,13aR)-12-Amino-2,2,6a,6b,9,9,13a-heptamethyl-2,3,4,4a,5,6,6a,6b,7,8,8a,9,11,13,13a,13b,14,15b-octadecahydro-1H-chryseno[1,2-f]indazole-4-a-carboxylic acid]?
**A.** concentration inhibiting the spreading biofilm of Xanthomonas campestris [1]: 0.5 µg/mL; B. cepacia (n = 10) inhibitory concentration in the biofilm growth assay [2]: 0.25; Salmonella spp. (n = 6) inhibitory concentration in the biofilm growth assay [3]: 1; growth of the spreading P. aeruginosa biofilm (FIG. 1) ([4]; 0.5 μg/ml in agar, overnight 37° C.): prevented the growth; optimal working concentration ([4]; P. aeruginosa biofilm growth assay (FIG. 2 legend)): 0.5 µg/mL; IC85 ([4]; overnight 37° C.): 0.5 µg/mL (≈ 1.01 µM); P. aeruginosa (n = 10) inhibitory concentration in the biofilm growth assay [4]: 1; modulation of cysB and genes under its control [5]: modulates cysB and genes under its control; combination with colistin at preventing the growth of P. aeruginosa biofilms (FIG. 2) [6]: synergistic; concentration inhibiting the spreading biofilm of Pectobacterium atrosepticum [7]: 0.06 µg/mL; IC85 [8]: 1 µg/mL (≈ 2.03 µM); E. coli (n = 10) inhibitory concentration in the biofilm growth assay [8]: 1; concentration inhibiting the spreading biofilm of Pseudomonas syringae [9]: 0.03 µg/mL

**Q.** Which results are given for `NC[C@H]1O[C@H](O[C@H]2[C@H](O)[C@@H](O[C@H]3O[C@H](CO)[C@@H](O)[C@H](N)[C@H]3O)[C@H](N)C[C@@H]2N)[C@H](N)C[C@@H]1O` [Tobramycin, tobramcyin, reference compound]?
**A.** B. cepacia (n = 10) inhibitory concentration in the biofilm growth assay [2]: >64; Salmonella spp. (n = 6) inhibitory concentration in the biofilm growth assay [3]: 8; P. aeruginosa (n = 10) inhibitory concentration in the biofilm growth assay [4]: 4; E. coli (n = 10) inhibitory concentration in the biofilm growth assay [8]: 16

**Q.** With `CN(C)C[C@]12CCC(C)(C)C[C@H]1C1=CC[C@@H]3[C@@]4(C)Cc5c(n[nH]c5N)C(C)(C)[C@@H]4CC[C@@]3(C)[C@]1(C)CC2` [Compound 64] as the compound, how does the IC85 ([4]; overnight 37° C.) read?
**A.** Its IC85 is 0.5 µg/mL (≈ 0.987 µM).

**Q.** And the “aqueous solubility of salts compared to freebase” value ([10]; Bis-MSA and mono-H3PO4 salts)?
**A.** The value was “increased aqueous solubility”.

**Q.** What about the IC85 [8] of the same compound?
**A.** The IC85 was 1 µg/mL (≈ 1.97 µM).

**Q.** With `CC1(C)CC[C@]2(C(N)=O)CC[C@]3(C)C(=CCC4[C@@]5(C)Cc6c(n[nH]c6N)C(C)(C)[C@@H]5CC[C@]43C)[C@@H]2C1` (stereo partly drawn) [Compound 62, (4aS,6aS,6bR,13aR)-12-Amino-2,2,6a,6b,9,9,13a-heptamethyl-2,3,4,4a,5,6,6a,6b,7,8,8a,9,11,13,13a,13b,14,15b-octadecahydro-1H-chryseno[1,2-f]indazole-4-a-carboxamide] as the compound, how does the IC85 ([4]; overnight 37° C.) read?
**A.** Its IC85 is 1 µg/mL (≈ 2.03 µM).

**Q.** And the “physical properties of salts compared to freebase” value ([10]; p-toluenesulfonic acid (mono) and H3PO4 (bis) salts)?
**A.** The value was “most desirable physical properties”.

**Q.** What about the IC85 [8] of the same compound?
**A.** The IC85 was 1 µg/mL (≈ 2.03 µM).

**Q.** For `CC(C)(O/N=C(\C(=O)N[C@@H]1C(=O)N2C(C(=O)[O-])=C(C[n+]3ccccc3)CS[C@H]12)c1csc(N)n1)C(=O)O` [Ceftazidime, ceftazidime, reference compound], which “B. cepacia (n = 10) inhibitory concentration in the biofilm growth assay” value [2] is on record?
**A.** Its value is greater than 8.

**Q.** And the “Salmonella spp. (n = 6) inhibitory concentration in the biofilm growth assay” value [3]?
**A.** Its value is 0.5.

**Q.** And the “P. aeruginosa (n = 10) inhibitory concentration in the biofilm growth assay” value [4]?
**A.** The value was 4.

**Q.** And the “E. coli (n = 10) inhibitory concentration in the biofilm growth assay” value [8]?
**A.** The value was 0.25.

**Q.** What does the source list for `CC[C@H]1OC(=O)[C@H](C)[C@@H](O[C@H]2C[C@@](C)(OC)[C@@H](O)[C@H](C)O2)[C@H](C)[C@@H](O[C@@H]2O[C@H](C)C[C@H](N(C)C)[C@H]2O)[C@](C)(O)C[C@@H](C)CN(C)[C@H](C)[C@@H](O)[C@]1(C)O` [Azithromycin, azithromycin]?
**A.** B. cepacia (n = 10) inhibitory concentration in the biofilm growth assay [2]: >16; Salmonella spp. (n = 6) inhibitory concentration in the biofilm growth assay [3]: >16; P. aeruginosa (n = 10) inhibitory concentration in the biofilm growth assay [4]: >16
